This passage reports IC50 results from patent US20060069123A1, “Substituted dipiperidine CCR2 antagonists” (priority 2004, published 2006).

Structures are written as SMILES. Like-named read-outs stand apart in the source and are kept apart here.

The target of one test is T1, CCR2 (Homo sapiens, UniProt P41597).
T1 sequence (P41597 1-360 isoform P41597-2): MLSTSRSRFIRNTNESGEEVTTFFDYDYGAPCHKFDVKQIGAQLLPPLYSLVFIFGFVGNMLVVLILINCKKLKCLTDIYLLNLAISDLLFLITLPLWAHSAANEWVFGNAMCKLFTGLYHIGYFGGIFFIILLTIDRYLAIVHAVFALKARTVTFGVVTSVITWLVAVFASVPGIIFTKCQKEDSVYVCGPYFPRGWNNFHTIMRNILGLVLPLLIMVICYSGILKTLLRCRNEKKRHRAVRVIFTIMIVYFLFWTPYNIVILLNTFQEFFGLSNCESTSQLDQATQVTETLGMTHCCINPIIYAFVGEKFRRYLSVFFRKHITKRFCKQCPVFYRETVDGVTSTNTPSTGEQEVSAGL

In the next test the test system is THP-1 cells. Nature of the test: MCP-1 Induced Chemotaxis in THP-1 Cells. The following applies: Homo sapiens, THP-1 cells, MCP-1 0.01 μg/mL, 3 hours, read-out: Inhibition of MCP-1 Induced Chemotaxis IC50. In kind it is cell-based. The procedure: MCP-1 Induced Chemotaxis in THP-1 Cells
MCP-1 induced chemotaxis was run in a 24-well chemotaxis chamber. MCP-1 (0.01 μg/mL) was added to the lower chamber and 100 μL of THP-1 cells (1×10^7 cell/mL) was added to the top chamber. Varying concentrations of test compound were added to the top and bottom chambers. Cells were allowed to chemotax for 3 hours at 37° C. and 5% CO2. An aliquot of the cells that had migrated to the bottom chamber was taken and counted then compared to vehicle.

Regarding `CC(=O)Nc1ccc2[nH]cc(C3CCN(C(C(=O)O)C4CCN(C(=O)/C=C/c5cc(F)c(F)c(F)c5)CC4)CC3)c2c1` (centres unmarked) [Cpd 17, [4-(5-acetylamino-1H-indol-3-yl)-piperidin-1-yl]-{1-[(2E)-3-(3,4,5-trifluoro-phenyl)-acryloyl]-piperidin-4-yl}-acetic acid], the figures for the concentration for half-maximal inhibition (IC50) against CCR2 and in the test on THP-1 cells were 160 nM and 20 nM, respectively.

As for `COc1ccc(C2CCN(C(C(=O)O)C3CCN(C(=O)/C=C/c4cc(F)cc(F)c4)CC3)CC2)cc1` (centres unmarked) [Cpd 2, {1-[(2E)-3-(3,5-difluoro-phenyl)-acryloyl]-piperidin-4-yl}-[4-(4-methoxy-phenyl)-piperidin-1-yl]-acetic acid], the IC50 is 1830 nM on CCR2 and 1810 nM with THP-1 cells.

As for `O=C(O)C(C1CCN(C(=O)/C=C/c2cccc(Cl)c2)CC1)N1CCC(c2c[nH]c3ccccc23)CC1` (centres unmarked) [Cpd 93, {1-[(2E)-3-(3-chloro-phenyl)-acryloyl]-piperidin-4-yl}-[4-(1H-indol-3-yl)-piperidin-1-yl]-acetic acid], the IC50 was 4 nM against CCR2 and 20 nM in the test on THP-1 cells.

For `O=C(O)C(C1CCN(C(=O)/C=C/c2cccc([N+](=O)[O-])c2)CC1)N1CCC(c2c[nH]c3ccccc23)CC1` (centres unmarked) [Cpd 92, [4-(1H-indol-3-yl)-piperidin-1-yl]-{1-[(2E)-3-(3-nitro-phenyl)-acryloyl]-piperidin-4-yl}-acetic acid], the IC50 at CCR2 came to 40 nM; with THP-1 cells it was 100 nM.

Consider `O=C(O)C(C1CCN(C(=O)Nc2ccc(Cl)c(C(F)(F)F)c2)CC1)N1CCC(c2c[nH]c3ccccc23)CC1` (centres unmarked) [Cpd 57, [1-(4-chloro-3-trifluoromethyl-phenylcarbamoyl)-piperidin-4-yl]-[4-(1H-indol-3-yl)-piperidin-1-yl]-acetic acid], for which the 50% inhibitory concentration (IC50) turned out to be 20 nM at CCR2 and 3 nM in the test on THP-1 cells.

For the compound `COc1cccc2[nH]cc(C3CCN(C(C(=O)O)C4CCN(C(=O)/C=C/c5cc(F)cc(F)c5)CC4)CC3)c12` (centres unmarked) [Cpd 41, {1-[(2E)-3-(3,5-difluoro-phenyl)-acryloyl]-piperidin-4-yl}-[4-(4-methoxy-1H-indol-3-yl)-piperidin-1-yl]-acetic acid], the IC50 at CCR2 worked out at 14 nM; with THP-1 cells, 40 nM.

For the compound `O=C(O)C(C1CCN(C(=O)/C=C/c2ccc(Cl)cc2)CC1)N1CCC(c2c[nH]c3ccccc23)CC1` (centres unmarked) [Cpd 34, {1-[(2E)-3-(4-chloro-phenyl)-acryloyl]-piperidin-4-yl}-[4-(1H-indol-3-yl)-piperidin-1-yl]-acetic acid], the half-maximal inhibitory concentration (IC50) stood at 10 nM at CCR2 and 6 nM with THP-1 cells.

As to `COc1ccc2c(C3CCN(C(C(=O)O)C4CCN(C(=O)/C=C/c5cc(F)cc(F)c5)CC4)CC3)c[nH]c2c1` (centres unmarked) [Cpd 38, {1-[(2E)-3-(3,5-difluoro-phenyl)-acryloyl]-piperidin-4-yl}-[4-(6-methoxy-1H-indol-3-yl)-piperidin-1-yl]-acetic acid], the IC50 against CCR2 was 20 nM; with THP-1 cells, 4 nM.

`COc1ccc2[nH]cc(C3CCN(C(C(=O)O)C4CCN(C(=O)Nc5ccc(Cl)c(Cl)c5)CC4)CC3)c2c1` (centres unmarked) [Cpd 94, [1-(3,4-dichloro-phenylcarbamoyl)-piperidin-4-yl]-[4-(5-methoxy-1H-indol-3-yl)-piperidin-1-yl]-acetic acid]: the IC50 against CCR2 and in the test with THP-1 cells was 10 nM each time.

As to `O=C(O)C(C1CCN(C(=O)/C=C/c2ccc(F)c(Br)c2)CC1)N1CCC(c2c[nH]c3ccccc23)CC1` (centres unmarked) [Cpd 36, {1-[(2E)-3-(3-bromo-4-fluoro-phenyl)-acryloyl]-piperidin-4-yl}-[4-(1H-indol-3-yl)-piperidin-1-yl]-acetic acid], the concentration for half-maximal inhibition (IC50) at CCR2 worked out at 8 nM; in the test with THP-1 cells, 0.4 nM.

As for `O=C(O)C(C1CCN(C(=O)Nc2cccc(Br)c2)CC1)N1CCC(c2c[nH]c3ccccc23)CC1` (centres unmarked) [Cpd 85, [1-(3-bromo-phenylcarbamoyl)-piperidin-4-yl]-[4-(1H-indol-3-yl)-piperidin-1-yl]-acetic acid], the IC50 against CCR2 came out at 170 nM; with THP-1 cells it was 190 nM.

On to `CS(=O)(=O)Nc1ccc2c(C3CCN(C(C(=O)O)C4CCN(C(=O)/C=C/c5cc(F)c(F)c(F)c5)CC4)CC3)c[nH]c2c1` (centres unmarked) [Cpd 82], for which the IC50 in the test with THP-1 cells (THP-1, 3 h) came to 210 nM.

As to `CS(=O)(=O)Nc1ccc2[nH]cc(C3CCN(C(C(=O)O)C4CCN(C(=O)/C=C/c5cc(F)cc(F)c5)CC4)CC3)c2c1` (centres unmarked) [Cpd 29, {1-[(2E)-3-(3,5-difluoro-phenyl)-acryloyl]-piperidin-4-yl}-[4-(5-methanesulfonylamino-1H-indol-3-yl)-piperidin-1-yl]-acetic acid], the IC50 against CCR2 was 24 nM; with THP-1 cells, 0.4 nM.

With `O=C(O)C(C1CCN(C(=O)/C=C/c2ccc(Cl)c(Cl)c2)CC1)N1CCC(c2c[nH]c3cc(F)ccc23)CC1` (centres unmarked) [Cpd 39, {1-[(2E)-3-(3,4-dichloro-phenyl)-acryloyl]-piperidin-4-yl}-[4-(6-fluoro-1H-indol-3-yl)-piperidin-1-yl]-acetic acid], the values for the IC50 against CCR2 and in the test on THP-1 cells were 2 nM and 1.9 nM, respectively.

For `O=C(O)C(C1CCN(C(=O)/C=C/c2cccc(Br)c2)CC1)N1CCC(c2c[nH]c3ccccc23)CC1` (centres unmarked) [Cpd 71, {1-[(2E)-3-(3-bromo-phenyl)-acryloyl]-piperidin-4-yl}-[4-(1H-indol-3-yl)-piperidin-1-yl]-acetic acid], the IC50 was found to be 20 nM at CCR2 and 7 nM in the test on THP-1 cells.

With `O=C(O)C(C1CCN(C(=O)Nc2ccc(F)c(F)c2)CC1)N1CCC(c2c[nH]c3ccccc23)CC1` (centres unmarked) [Cpd 40, [1-(3,4-difluoro-phenylcarbamoyl)-piperidin-4-yl]-[4-(1H-indol-3-yl)-piperidin-1-yl]-acetic acid], in the test on THP-1 cells, the concentration for half-maximal inhibition (IC50) amounted to 30 nM.

With `O=C(O)C(C1CCN(C(=O)/C=C/c2cc(F)cc(F)c2)CC1)N1CCC(c2c[nH]c3ccc(F)cc23)CC1` (centres unmarked) [Cpd 8, {1-[(2E)-3-(3,5-difluoro-phenyl)-acryloyl]-piperidin-4-yl}-[4-(5-fluoro-1H-indol-3-yl)-piperidin-1-yl]-acetic acid], the concentration for half-maximal inhibition (IC50) in the test with THP-1 cells came out at 10 nM.

For `O=C(O)C(C1CCN(C(=O)/C=C/c2ccc(Cl)c(Cl)c2)CC1)N1CCC(c2c[nH]c3ccc(F)cc23)CC1` (centres unmarked) [Cpd 19, {1-[(2E)-3-(3,4-dichloro-phenyl)-acryloyl]-piperidin-4-yl}-[4-(5-fluoro-1H-indol-3-yl)-piperidin-1-yl]-acetic acid], the 50% inhibitory concentration (IC50) with THP-1 cells was found to be 4 nM.

As to `COc1cccc(/C=C/C(=O)N2CCC(C(C(=O)O)N3CCC(c4c[nH]c5ccccc45)CC3)CC2)c1` (centres unmarked) [Cpd 72, [4-(1H-indol-3-yl)-piperidin-1-yl]-{1-[(2E)-3-(3-methoxy-phenyl)-acryloyl]-piperidin-4-yl}-acetic acid], the 50% inhibitory concentration (IC50) in the test on THP-1 cells amounted to 30 nM.

For the compound `O=C(O)C(C1CCN(C(=O)/C=C/c2ccc(Br)cc2)CC1)N1CCC(c2c[nH]c3ccccc23)CC1` (centres unmarked) [Cpd 60, {1-[(2E)-3-(4-bromo-phenyl)-acryloyl]-piperidin-4-yl}-[4-(1H-indol-3-yl)-piperidin-1-yl]-acetic acid], the IC50 in the test on THP-1 cells is 70 nM.

For `COc1ccc2[nH]cc(C3CCN(C(C(=O)O)C4CCN(C(=O)/C=C/c5cc(F)cc(F)c5)CC4)CC3)c2c1` (centres unmarked) [Cpd 26, {1-[(2E)-3-(3,5-difluoro-phenyl)-acryloyl]-piperidin-4-yl}-[4-(5-methoxy-1H-indol-3-yl)-piperidin-1-yl]-acetic acid], the IC50 in the test on THP-1 cells came to 30 nM.

For `O=C(O)C(C1CCN(C(=O)/C=C/c2cccc(F)c2)CC1)N1CCC(c2c[nH]c3ccccc23)CC1` (centres unmarked) [Cpd 62, {1-[(2E)-3-(3-fluoro-phenyl)-acryloyl]-piperidin-4-yl}-[4-(1H-indol-3-yl)-piperidin-1-yl]-acetic acid], in the test with THP-1 cells, the half-inhibitory concentration (IC50) was found to be 180 nM.

In the case of `O=C(O)C(C1CCN(C(=O)/C=C/c2cc(F)cc(F)c2)CC1)N1CCC(c2c[nH]c3cc(Cl)ccc23)CC1` (centres unmarked) [Cpd 25, [4-(6-chloro-1H-indol-3-yl)-piperidin-1-yl]-{1-[(2E)-3-(3,5-difluoro-phenyl)-acryloyl]-piperidin-4-yl}-acetic acid], in the test with THP-1 cells, the IC50 is 10 nM.

With `O=C(O)C(C1CCN(C(=O)/C=C/c2ccc(F)c(F)c2)CC1)N1CCC(c2c[nH]c3ccccc23)CC1` (centres unmarked) [Cpd 22, {1-[(2E)-3-(3,4-difluoro-phenyl)-acryloyl]-piperidin-4-yl}-[4-(1H-indol-3-yl)-piperidin-1-yl]-acetic acid], the IC50 with THP-1 cells was determined as 4 nM.

As for `O=C(O)C(C1CCN(C(=O)/C=C/c2cc(F)cc(F)c2)CC1)N1CCC(c2c[nH]c3ccc(O)cc23)CC1` (centres unmarked) [Cpd 16, {1-[(2E)-3-(3,5-difluoro-phenyl)-acryloyl]-piperidin-4-yl}-[4-(5-hydroxy-1H-indol-3-yl)-piperidin-1-yl]-acetic acid], in the test with THP-1 cells, the IC50 turned out to be 20 nM.

Turning to `CC(=O)OCC(C1CCN(C(=O)OC(C)(C)C)CC1)N1CCC(c2c[nH]c3ccccc23)CC1` (centres unmarked) [Cpd 234, 4-{2-acetoxy-1-[4-(1H-indol-3-yl)-piperidin-1-yl]-ethyl}-piperidine-1-carboxylic acid tert-butyl ester], the half-inhibitory concentration (IC50) against CCR2 was 11200 nM.

With `COc1cccc2c(C3CCN(C(C(=O)O)C4CCN(C(=O)/C=C/c5cc(F)cc(F)c5)CC4)CC3)c[nH]c12` (centres unmarked) [Cpd 42, {1-[(2E)-3-(3,5-difluoro-phenyl)-acryloyl]-piperidin-4-yl}-[4-(7-methoxy-1H-indol-3-yl)-piperidin-1-yl]-acetic acid], in the test on THP-1 cells, the IC50 amounted to 0.8 nM.
